≈ marks a conversion by molar mass, not a printed value. Like-named read-outs stand apart in the source and are kept apart here. Where a SMILES comes first, the peptide text is derived from it. Bridges are numbered along the chain shown (N, C = ends). [ ]: non-standard residue; d: D form. The star is where a group is joined. Palmitoyl(16-(5-tetrazolyl)) = O=C(CCCCCCCCCCCCCCCc1nnn[nH]1)*; Lys(CH2CO2H)2 = N[C@@H](CCCCN(CC(=O)O)CC(=O)O)C(=O)O; Hyp = O=C(O)[C@@H]1C[C@@H](O)CN1; NTA = O=C(O)CN(CC(=O)O)CC(=O)*; Nle = CCCC[C@H](N)C(=O)O; Dap = NC[C@H](N)C(=O)O; AEEA = NCCOCCOCC(=O)O
Key:
MC1 receptor = biological target: T1, MC1 receptor (Homo sapiens, UniProt Q01726); assay: Assay (IV) Melanocortin Receptor 1 (MC1) binding assay
T1 construct: expressed in transfected cells
T1 sequence (Q01726 whole entry): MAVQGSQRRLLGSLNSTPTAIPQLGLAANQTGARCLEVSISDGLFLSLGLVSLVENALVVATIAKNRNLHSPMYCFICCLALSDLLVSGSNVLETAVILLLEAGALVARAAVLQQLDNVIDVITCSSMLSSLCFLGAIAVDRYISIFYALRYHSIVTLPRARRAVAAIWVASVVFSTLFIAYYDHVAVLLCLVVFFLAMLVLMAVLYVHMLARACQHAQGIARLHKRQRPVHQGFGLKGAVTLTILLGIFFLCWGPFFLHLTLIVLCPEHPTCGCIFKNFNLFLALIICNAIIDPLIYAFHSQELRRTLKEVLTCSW
Method: Assay (IV)—Melanocortin Receptor 1 (MC1) Binding Assay
The MC1 receptor binding assay is performed on BHK cell membranes stably expressing the MC1 receptor. The assay is performed in a total volume of 250 NI: 25 μl of ^125NDP-α-MSH (22 pM in final concentration), 25 μl of test compound/control and 200 μl of cell membrane (25 μg/ml). Test compounds are dissolved in DMSO. Radioactively labeled ligand, membranes and test compounds are diluted in buffer: 25 mM HEPES, pH 7.4, 0.1 mM CaCl2, 1 mM MgSO4, 1 mM EDTA, 0.1% HSA and 0.005% Tween™ 20. Alternatively, HSA may be substituted with ovalbumin. The samples are incubated at 30° C. for 90 min. in Costar round-bottom microtiter plates. Incubation is terminated by filtration on a Packard harvester filtermate. Rapid filtration through Packard Unifilter-96 GF/B filters pre-treated with polyethylenimine (PerkinElmer 6005277). The filters are washed with ice-cold 0.9% NaCl 8-10 times. The plates is air dried at app. 55° C. for 30 min, and 50 μl Microscint 0 (Packard, cat. No. 6013616) is added to each well. The plates are counted in a Topcounter (1 min/well).
(§1) The data are analysed by non-linear regression analysis of binding curves, using the Windows™ program GraphPad™ Prism (GraphPad Software, USA).

[1] = Solubility data of compounds in water over the pH range; format: physicochemical
human MC4 receptor = biological target: T2, human MC4 receptor (Homo sapiens, UniProt P32245); assay: Assay (V) Melanocortin Receptor 4 (MC4) binding assay; conditions: 125NDP-α-MSH binding, BHK cell membranes
T2 construct: expressed in transfected cells
T2 sequence (P32245 whole entry): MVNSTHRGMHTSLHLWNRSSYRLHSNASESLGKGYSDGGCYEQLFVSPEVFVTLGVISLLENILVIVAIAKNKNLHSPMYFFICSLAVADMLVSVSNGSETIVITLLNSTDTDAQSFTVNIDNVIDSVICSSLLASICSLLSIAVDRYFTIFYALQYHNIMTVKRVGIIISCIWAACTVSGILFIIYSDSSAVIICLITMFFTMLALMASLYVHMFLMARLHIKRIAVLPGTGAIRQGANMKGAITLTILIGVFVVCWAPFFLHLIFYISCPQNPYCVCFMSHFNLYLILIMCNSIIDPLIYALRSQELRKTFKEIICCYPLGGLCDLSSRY
Method: Assay (V)—Melanocortin Receptor 4 (MC4) Binding Assay
In vitro ^125NDP-α-MSH binding to recombinant BHK cells expressing human MC4 receptor (filtration assay).
The assay is performed in 5 ml minisorb vials (Sarstedt No. 55.526) or in 96-well filterplates (Millipore MADVN 6550), and using BHK cells expressing the human MC4 receptor using BHK cells stably expressing the human MC4 receptor. The membranes were prepared from frozen or fresh cells that were homogenized in 20 mM HEPES pH 7.1, 5 mM MgCl2 and 1 mg/ml bacitracin and centrifuged at 15000 rpm at 4° C., 10 min in a Sorvall RC 5B plus, SS-34 rotor. The supernatant was discarded, and the pellets were re-suspended in buffer, homogenized and centrifuged two more times. The final pellets were resuspended in the buffer mentioned above, and the protein concentration was measured and adjusted with buffer to 14 to 17 mg/ml and the membrane preparation were kept at −80° C. until assay. The assay was run directly on a dilution of this cell membrane suspension, without any further preparation. The BHK cell membranes are kept at −80° C. until assay, and the assay is run directly on a dilution of this cell membrane suspension, without further preparation. The suspension is diluted to give maximally 10% specific binding, i.e. to approx. 50-100 fold dilution. The assay is performed in a total volume of 200 μl: 50 μl of cell suspension, 50 μl of ^125NDP-α-MSH (≈79 pM in final concentration), 50 μl of test compound and 50 μl binding buffer (pH 7) mixed and incubated for 2 h at 25° C. [binding buffer: 25 mM HEPES, pH 7.0, 1 mM CaCl2, 1 mM MgSO4, 1 mM EGTA, 0.02% Bacitracin, 0.005% Tween™ 20 and 0.1% HSA or, alternatively, 0.1% ovalbumin (Sigma; catalogue No. A-5503)]. Test compounds are dissolved in DMSO and diluted in binding buffer. Radiolabelled ligand and membranes are diluted in binding buffer. The incubation is stopped by dilution with 2×100 μl ice-cold 0.9% NaCl. The radioactivity retained on the filters is counted using a Cobra II auto gamma counter.
as §1

`CCCC[C@H](NC(=O)[C@H](CCCCN(CC(=O)O)CC(=O)O)NC(=O)[C@H](Cc1c[nH]cn1)NC(=O)[C@H](CCC(N)=O)NC(=O)[C@H](CO)NC(=O)CNC(=O)COCCOCCNC(=O)CCCCCCCCCCCCCCCc1nnn[nH]1)C(=O)N[C@H]1CCC(=O)NCCCC[C@@H](C(N)=O)NC(=O)[C@H](Cc2c[nH]c3ccccc23)NC(=O)[C@H](CCCNC(=N)N)NC(=O)[C@@H](Cc2ccccc2)NC(=O)[C@@H]2C[C@@H](O)CN2C1=O` [Example 7, (2-{2-[16-(Tetrazol-5-yl)hexadecanoylamino]ethoxy}ethoxy)acetyl-Gly-Ser-Gln-His-Lys(biscarboxymethyl)-Nle-c[Glu-Hyp-D-Phe-Arg-Trp-Lys]-NH2] ({Palmitoyl(16-(5-tetrazolyl))-AEEA}-GSQH[Lys(CH2CO2H)2][Nle]E[Hyp][dF]RWK-NH2; lactam 7-12) gave a Ki (MC1 receptor) of 8710 nM, a solubility at 3 days ([1]; pH 2.94, pH 2.94, read-out: Conc (solubility in water)) of 536 µM (≈ 1110 µg/mL) and a solubility at 3 days ([1]; pH 3.28, pH 3.28, read-out: Conc (solubility in water)) of 476 µM (≈ 989 µg/mL). For the same molecule, the solubility at 3 days ([1]; pH 3.59, pH 3.59, read-out: Conc (solubility in water)) was 398 µM (≈ 827 µg/mL), the solubility at 3 days ([1]; pH 3.95, pH 3.95, read-out: Conc (solubility in water)) was 276 µM (≈ 573 µg/mL) and the solubility at 3 days ([1]; pH 4.75, pH 4.75, read-out: Conc (solubility in water)) was 42 µM (≈ 87.3 µg/mL). It also gave a solubility at 3 days ([1]; pH 5.64, pH 5.64, read-out: Conc (solubility in water)) of 19 µM (≈ 39.5 µg/mL), a solubility at 3 days ([1]; pH 6.48, pH 6.48, read-out: Conc (solubility in water)) of 18 µM (≈ 37.4 µg/mL) and a solubility at 3 days ([1]; pH 6.98, pH 6.98, read-out: Conc (solubility in water)) of 35 µM (≈ 72.7 µg/mL). The solubility at 3 days ([1]; pH 7.48, pH 7.48, read-out: Conc (solubility in water)) was 262 µM (≈ 544 µg/mL), the solubility at 3 days ([1]; pH 7.78, pH 7.78, read-out: Conc (solubility in water)) was 391 µM (≈ 812 µg/mL) and the Ki (human MC4 receptor; Assay (V) MC4 [Ki] (nM)) was 1.6 nM.

Molecule `CCCC[C@H](NC(=O)[C@H](CNC(=O)CN(CC(=O)O)CC(=O)O)NC(=O)[C@H](CO)NC(=O)[C@H](CCC(N)=O)NC(=O)[C@H](CO)NC(=O)CNC(=O)COCCOCCNC(=O)COCCOCCNC(=O)COCCOCCNC(=O)COCCOCCNC(=O)CCCCCCCCCCCCCCCc1nnn[nH]1)C(=O)N[C@H]1CCC(=O)NCCCC[C@@H](C(N)=O)NC(=O)[C@H](Cc2c[nH]c3ccccc23)NC(=O)[C@H](CCCNC(=N)N)NC(=O)[C@@H](Cc2ccccc2)NC(=O)[C@@H]2C[C@@H](O)CN2C1=O` [Example 14, (2-{2-[2-(2-{2-[2-(2-{2-[2-(2-{2-[16-(Tetrazol-5-yl)hexadecanoylamino]ethoxy}ethoxy)acetylamino]ethoxy}ethoxy)acetylamino]ethoxy}ethoxy)acetylamino]ethoxy}ethoxy)acetyl-Gly-Ser-Gln-Ser-Dap(BCMA)-Nle-c[Glu-Hyp-D-Phe-Arg-Trp-Lys]-NH2] ({Palmitoyl(16-(5-tetrazolyl))-AEEA-AEEA-AEEA-AEEA}-GSQS[Dap](NTA)[Nle]E[Hyp][dF]RWK-NH2; lactam 7-12) has a Ki (MC1 receptor; 125NDP-α-MSH binding, BHK cell membranes, read-out: Assay (IV) MC1 Ki) of over 10000 nM, a solubility at 3 days ([1]; pH 3.18) of 19 µM (≈ 47.1 µg/mL) and a solubility at 3 days ([1]; pH 4.62) of 15 µM (≈ 37.2 µg/mL). It also gave a solubility at 3 days ([1]; pH 4.66) of 23 µM (≈ 57 µg/mL), a solubility at 3 days ([1]; pH 5.07) of 18 µM (≈ 44.6 µg/mL) and a solubility at 3 days ([1]; pH 5.37) of 10 µM (≈ 24.8 µg/mL). For the same molecule, the solubility at 3 days ([1]; pH 5.84) was 41 µM (≈ 102 µg/mL), the solubility at 3 days ([1]; pH 6.5) was 19 µM (≈ 47.1 µg/mL) and the solubility at 3 days ([1]; pH 7) was 17 µM (≈ 42.1 µg/mL). It also gave a solubility at 3 days ([1]; pH 7.29) of 20 µM (≈ 49.6 µg/mL), a solubility at 3 days ([1]; pH 7.43) of 29 µM (≈ 71.9 µg/mL) and a Ki (human MC4 receptor; read-out: Assay (V) MC4 [Ki]) of 8.65 nM.

Source: patent US20100173835A1, “Peptides for Treatment of Obesity” (Novo Nordisk A/S, priority 2008, published 2010)
